# Results from patent US20060231107A1, “Antibody-targeted photodynamic therapy” (priority 2003, published 2006).
# What was measured:
# [1] = tested on: VEGF-expressing, murine endothelial cells (MS-1 VEGF, ATCC); assay: Photodynamic cell viability by trypan blue exclusion; format: cell-based; conditions: for cell viability (trypan blue exclusion) compared with Dulbecco's PBS controls: laser-exposed (647 nm, 56.5 J/cm), verteporfin 40 μg/ml, P<0.0001
# Procedure: FIG. 3 is a graph showing the mean percent cell viability by trypan blue exclusion over eight experimental runs in 24-well culture plates for VEGF-expressing endothelial cells in Dulbecco's phosphate buffered saline (“DPBS”), cells incubated with verteporfin ([sequence]) at 40 μg/ml (“Verteporfin”), and cells incubated with verteporfin ([sequence]) conjugated to anti-VEGF antibody (“Conjugate”). Error bars indicate 1 standard deviation from the mean. The cells received either no laser treatment or were exposed to krypton-ion CW laser (647 nm) at a total light dosage of 56.5 J/cm for either 1 hour (left) or 24 hours (right).
# Experiments were conducted in a line of cultured, VEGF-expressing, murine erdothelial cells (MS-1 VEGF, ATCC). Cells were grown in 24-well culture plates under standard cell culture conditions in Dulbecco's minimal essential medium (DMEM) with 10% fetal calf serum. Cells were incubated for one hour with either phosphate buffered saline solution alone, verteporfin at 40 μg/ml, or verteporfin-anti-VEGF antibody conjugate (FIG. 2A). All cells were washed twice with phosphate buffered saline following incubation to remove unbound photosensitizer. The photosensitizer was excited by exposing selected wells to the krypton-ion CW laser (647 nm) at a total light dosage of 56.5 J/cm, which is the recommended ophthalmic light dosage (FIG. 2A). For each treatment condition, there were laser-exposed and non-exposed groups. Following laser exposure, cells were incubated for either 1 or 24 hours, and cell viability was assessed using trypan blue exclusion.
# [2] = tested on: MS-1 vascular endothelial cells; assay: Binding kinetics: fluorescence intensity of labeled MS-1 cells in confocal micrographs; format: cell-based, murine; conditions: within the first 10 minutes of labeling (FIG. 7)
# Procedure: FIG. 7 is a graph of fluorescence intensity of conjugate-labeled and VISUDYNE-labeled MS-1 vascular endothelial cells as a function of incubation time. The fluorescence intensity of confocal micrographs was determined with the “histogram” analysis tool of the ImagePro image processing software program (Media Cybernetics; Silver Springs, Md.). Intensity is expressed as the accumulated pixel counts in the image.
# In order to provide a more quantitative comparison of the binding kinetics of the conjugate and the native VISUDYNE, the fluorescence intensity of the MS-1 cells labeled for varying durations was measured in a series of confocal micrographs using the “histogram” tool of ImagePro image processing program (Media Cybernetics; Silver Springs, Md.). […] Accordingly, if the laser activation were to be applied within 10 minutes of application of the conjugate, essentially maximum photodynamic effect would be realized. Targets not expressing the VEGF factor would not be as strongly labeled. This improved selectivity of the conjugate for VEGF-expressing targets is a distinct advantage over the native VISUDYNE.
substance,measurement,setting,value
verteporfin,cell viability (trypan blue exclusion) compared with Dulbecco's PBS controls,[1]; 1 hour after laser,large losses of viability
same,cell viability (trypan blue exclusion) compared with Dulbecco's PBS controls,[1]; 24 hours after laser,large losses of viability
same,cell viability without laser exposure,"[1]; no laser, possible toxicity or low-level activation by ambient light",reduced viability
same,binding to the target cells (fluorescence intensity),[2],approximately 50 % of maximum binding
